We go through 18 molecules from patent US20260200939A1, “MOLECULAR GLUE DEGRADER COMPOUNDS AND USES THEREOF” (Novartis AG, priority 2022, published 2026).

For orientation: DC50 means the concentration giving 50% degradation. Read a low DC50 as a more potent degrader.

This assay has as its target T1, CDK4 (Homo sapiens, UniProt P11802).
T1 construct: endogenous in cells; host or cells: C33A
The assay is described as follows: CDK4 Degradation Assay, Western blotting. It is filed as cell-based. The method, then:
C33A cells were purchased from American Type Culture Collection (ATCC) and were cultured in Dulbecco's Modified Eagle Medium (DMEM) containing 10% (v/v) fetal bovine serum (FBS) and maintained at 37° C. with 5% CO2. 22RV1 cells were purchased from the ATCC and were cultured in RPMI-1640 Medium containing 10% (v/v) FBS and maintained at 37° C. with 5% CO2. HEK293T cells were obtained from the UC Berkeley Cell Culture Facility and were cultured in DMEM containing 10% (v/v) FBS and maintained at 37° C. with 5% CO2. K562 cells were obtained from the UC Berkeley Cell Culture Facility and were cultured in Iscove's Modified Dulbecco's Medium (IMDM) containing 10% (v/v) FBS and maintained at 37° C. with 5% CO2. MV-4-11 cells were obtained from the ATCC and were cultured in IMDM containing 10% (v/v) FBS and maintained at 37° C. with 5% CO2. A549 cells were obtained from the ATCC and were cultured in F-12K Medium containing 10% (v/v) FBS and maintained at 37° C. with 5% CO2. Mino cells were obtained from the ATCC and were cultured in RPMI-1640 Medium containing 10% (v/v) FBS and maintained at 37° C. with 5% CO2. LNCaP cells were obtained from the ATCC and were cultured in RPMI-1640 Medium containing 10% (v/v) FBS and maintained at 37° C. with 5% CO2. Unless otherwise specified, all cell culture materials were purchased from Gibco. It is not known whether HEK293T cells are from male or female origin.
Cells were washed twice with cold PBS, scraped, and pelleted by centrifugation (700 g, 5 min, 4° C.). Pellets were resuspended in PBS, sonicated, clarified by centrifugation (12,000 g, 10 min, 4° C.), and lysate was transferred to new low-adhesion microcentrifuge tubes. Proteome concentrations were determined using BCA assay and lysate was diluted to appropriate working concentrations.
Proteins were resolved by SDS/PAGE and transferred to nitrocellulose membranes using the Trans-Blot Turbo transfer system (Bio-Rad). Membranes were blocked with 5% BSA in Tris-buffered saline containing Tween 20 (TBS-T) solution for 30 min at RT, washed in TBS-T, and probed with primary antibody diluted in recommended diluent per manufacturer overnight at 4° C. After 3 washes with TBS-T, the membranes were incubated in the dark with IR680- or IR800-conjugated secondary antibodies at 1:10,000 dilution in 5% BSA in TBS-T at RT for 1 h. After 3 additional washes with TBST, blots were visualized using an Odyssey Li-Cor fluorescent scanner. The membranes were stripped using ReBlot Plus Strong Antibody Stripping Solution (EMD Millipore) when additional primary antibody incubations were performed. Antibodies used in this study were CDK4 (Abcam ab108357), Vinculin (Abcam ab129002), GAPDH (Cell Signaling Technology 14C10), RNF126 (Santa Cruz Biotechnology sc-376005), BRD4 (Abcam ab128874), Beta Actin (Cell Signaling Technology 13E5), PDE5 (Abcam ab259945), AR-V7 (Abcam ab273500), c-Abl (Santa Cruz Biotechnology sc-23), SMARCA2 (Abcam ab240648), LRRK2 (Abcam ab133474), BTK (Cell Signaling Technology D3H5), Androgen Receptor (Abcam ab133273).
On to `CN(C)C(=O)c1cc2cnc(Nc3ccc(N4CCN(C(=O)/C=C/C(=O)c5ccccc5)CC4)cn3)nc2n1C1CCCC1` [Compound 258, (E)-7-cyclopentyl-N,N-dimethyl-2-((5-(4-(4-oxo-4-phenylbut-2-enoyl)piperazin-1-yl)pyridin-2-yl)amino)-7H-pyrrolo[2,3-d]pyrimidine-6-carboxamide], for which the half-maximal degradation concentration (DC50) was more than 10 µM. `CN(C)C(=O)c1cc2cnc(Nc3ccc(N4CCN(C(=O)/C=C/C(=O)c5cccc(Br)c5)CC4)cn3)nc2n1C1CCCC1` [Compound 259, (E)-2-((5-(4-(4-(3-bromophenyl)-4-oxobut-2-enoyl)piperazin-1-yl)pyridin-2-yl)amino)-7-cyclopentyl-N,N-dimethyl-7H-pyrrolo[2,3-d]pyrimidine-6-carboxamide] yielded a half-maximal degradation concentration (DC50) of more than 10 µM. With `CN(C)C(=O)c1cc2cnc(Nc3ccc(N4CCN(C(=O)/C=C/C(=O)c5ccc6c(c5)OCC6)CC4)cn3)nc2n1C1CCCC1` [Compound 260, (E)-7-cyclopentyl-2-((5-(4-(4-(2,3-dihydrobenzofuran-6-yl)-4-oxobut-2-enoyl)piperazin-1-yl)pyridin-2-yl)amino)-N,N-dimethyl-7H-pyrrolo[2,3-d]pyrimidine-6-carboxamide], the DC50 is more than 10 µM. `CN(C)C(=O)c1cc2cnc(Nc3ccc(N4CCN(C(=O)/C=C/C(=O)c5ccc6c(c5)CCO6)CC4)cn3)nc2n1C1CCCC1` [Compound 261, (E)-7-cyclopentyl-2-((5-(4-(4-(2,3-dihydrobenzofuran-5-yl)-4-oxobut-2-enoyl)piperazin-1-yl)pyridin-2-yl)amino)-N,N-dimethyl-7H-pyrrolo[2,3-d]pyrimidine-6-carboxamide] yielded a DC50 of more than 10 µM.

Take `Cc1ccc(C(=O)/C=C/C(=O)N2CCN(c3ccc(Nc4ncc5cc(C(=O)N(C)C)n(C6CCCC6)c5n4)nc3)CC2)cc1` [Compound 262, (E)-7-cyclopentyl-N,N-dimethyl-2-((5-(4-(4-oxo-4-(p-tolyl)but-2-enoyl)piperazin-1-yl)pyridin-2-yl)amino)-7H-pyrrolo[2,3-d]pyrimidine-6-carboxamide]: the 50% degradation concentration (DC50) is 1 to 10 µM.

In turn, `Cc1ccccc1C(=O)/C=C/C(=O)N1CCN(c2ccc(Nc3ncc4cc(C(=O)N(C)C)n(C5CCCC5)c4n3)nc2)CC1` [Compound 263, (E)-7-cyclopentyl-N,N-dimethyl-2-((5-(4-(4-oxo-4-(o-tolyl)but-2-enoyl)piperazin-1-yl)pyridin-2-yl)amino)-7H-pyrrolo[2,3-d]pyrimidine-6-carboxamide] yielded a DC50 of more than 10 µM.

Consider `COc1ccc(C(=O)/C=C/C(=O)N2CCN(c3ccc(Nc4ncc5cc(C(=O)N(C)C)n(C6CCCC6)c5n4)nc3)CC2)c(F)c1` [Compound 264, (E)-7-cyclopentyl-2-((5-(4-(4-(2-fluoro-4-methoxyphenyl)-4-oxobut-2-enoyl)piperazin-1-yl)pyridin-2-yl)amino)-N,N-dimethyl-7H-pyrrolo[2,3-d]pyrimidine-6-carboxamide], for which the half-maximal degradation concentration (DC50) is more than 10 µM. For `COc1cc(F)ccc1C(=O)/C=C/C(=O)N1CCN(c2ccc(Nc3ncc4cc(C(=O)N(C)C)n(C5CCCC5)c4n3)nc2)CC1` [Compound 265, (E)-7-cyclopentyl-2-((5-(4-(4-(4-fluoro-2-methoxyphenyl)-4-oxobut-2-enoyl)piperazin-1-yl)pyridin-2-yl)amino)-N,N-dimethyl-7H-pyrrolo[2,3-d]pyrimidine-6-carboxamide] the value was more than 10 µM; for `COc1ccc(C(=O)/C=C/C(=O)N2CCN(c3ccc(Nc4ncc5cc(C(=O)N(C)C)n(C6CCCC6)c5n4)nc3)CC2)cc1F` [Compound 266, (E)-7-cyclopentyl-2-((5-(4-(4-(3-fluoro-4-methoxyphenyl)-4-oxobut-2-enoyl)piperazin-1-yl)pyridin-2-yl)amino)-N,N-dimethyl-7H-pyrrolo[2,3-d]pyrimidine-6-carboxamide], more than 10 µM; for `CN(C)C(=O)c1cc2cnc(Nc3ccc(N4CCN(C(=O)/C=C/C(=O)c5ccc(C#N)cc5)CC4)cn3)nc2n1C1CCCC1` [Compound 267, (E)-2-((5-(4-(4-(4-cyanophenyl)-4-oxobut-2-enoyl)piperazin-1-yl)pyridin-2-yl)amino)-7-cyclopentyl-N,N-dimethyl-7H-pyrrolo[2,3-d]pyrimidine-6-carboxamide], more than 10 µM. On to `COc1ccc(C(=O)/C=C/C(=O)N2CCN(c3ccc(Nc4ncc5cc(C(=O)N(C)C)n(C6CCCC6)c5n4)nc3)CC2)c(Cl)c1` [Compound 268, (E)-2-((5-(4-(4-(2-chloro-4-methoxyphenyl)-4-oxobut-2-enoyl)piperazin-1-yl)pyridin-2-yl)amino)-7-cyclopentyl-N,N-dimethyl-7H-pyrrolo[2,3-d]pyrimidine-6-carboxamide], for which the 50% degradation concentration (DC50) was more than 10 µM. Turning to `COc1ccc(C(=O)/C=C/C(=O)N[C@H]2C[C@@H](Nc3ccc(Nc4ncc5cc(C(=O)N(C)C)n(C6CCCC6)c5n4)nc3)C2)cc1` [Compound 269, 7-cyclopentyl-2-((5-(((1s,3s)-3-((E)-4-(4-methoxyphenyl)-4-oxobut-2-enamido)cyclobutyl)amino)pyridin-2-yl)amino)-N,N-dimethyl-7H-pyrrolo[2,3-d]pyrimidine-6-carboxamide], the 50% degradation concentration (DC50) was more than 10 µM. With `COc1ccc(C(=O)/C=C/C(=O)N[C@H]2C[C@H](Nc3ccc(Nc4ncc5cc(C(=O)N(C)C)n(C6CCCC6)c5n4)nc3)C2)cc1` [Compound 270, 7-cyclopentyl-2-((5-(((1r,3r)-3-((E)-4-(4-methoxyphenyl)-4-oxobut-2-enamido)cyclobutyl)amino)pyridin-2-yl)amino)-N,N-dimethyl-7H-pyrrolo[2,3-d]pyrimidine-6-carboxamide], the DC50 is more than 10 µM. `COc1ccc(C(=O)/C=C/C(=O)N2CCN(c3ccc(Nc4ncc5cc(C(=O)N(C)C)n(C6CCCC6)c5n4)nc3)[C@H](C)C2)cc1` [Compound 271, (R,E)-7-cyclopentyl-2-((5-(4-(4-(4-methoxyphenyl)-4-oxobut-2-enoyl)-2-methylpiperazin-1-yl)pyridin-2-yl)amino)-N,N-dimethyl-7H-pyrrolo[2,3-d]pyrimidine-6-carboxamide] had a DC50 of 1 to 10 µM.

Take `COc1ccc(C(=O)/C=C/C(=O)N(C)CCN(C)c2ccc(Nc3ncc4cc(C(=O)N(C)C)n(C5CCCC5)c4n3)nc2)cc1` [Compound 272, (E)-7-cyclopentyl-2-((5-((2-(4-(4-methoxyphenyl)-N-methyl-4-oxobut-2-enamido)ethyl)(methyl)amino)pyridin-2-yl)amino)-N,N-dimethyl-7H-pyrrolo[2,3-d]pyrimidine-6-carboxamide]: the DC50 was more than 10 µM. For the molecule `COc1ccc(C(=O)/C=C/C(=O)N2CCN(c3ccc(Nc4ncc5cc(C(=O)N(C)C)n(C6CCCC6)c5n4)nc3)C[C@H]2C)cc1` [Compound 273, (R,E)-7-cyclopentyl-2-((5-(4-(4-(4-methoxyphenyl)-4-oxobut-2-enoyl)-3-methylpiperazin-1-yl)pyridin-2-yl)amino)-N,N-dimethyl-7H-pyrrolo[2,3-d]pyrimidine-6-carboxamide], the half-maximal degradation concentration (DC50) is 1 to 10 µM.

The molecule `COc1ccc(C(=O)/C=C/C(=O)N2CCN(c3ccc(Nc4ncc5cc(C(=O)N(C)C)n(C6CCCC6)c5n4)nc3)[C@@H](C)C2)cc1` [Compound 274, (S,E)-7-cyclopenty1-2-((5-(4-(4-(4-methoxyphenyl)-4-oxobut-2-enoyl)-2-methylpiperazin-1-yl)pyridin-2-yl)amino)-N,N-dimethyl-7H-pyrrolo[2,3-d]pyrimidine-6-carboxamide] showed a DC50 of 1 to 10 µM. In turn, `COc1ccc(C(=O)/C=C/C(=O)N2CCCN(c3ccc(Nc4ncc5cc(C(=O)N(C)C)n(C6CCCC6)c5n4)nc3)CC2)cc1` [Compound 275, (E)-7-cyclopentyl-2-((5-(4-(4-(4-methoxyphenyl)-4-oxobut-2-enoyl)-1,4-diazepan-1-yl)pyridin-2-yl)amino)-N,N-dimethy1-7H-pyrrolo[2,3-d]pyrimidine-6-carboxamide] had a DC50 of 1 to 10 µM.
